{"source": "patent US20240058455A1", "about": "“BIOORTHOGONAL LINKERS AND REACTIONS” (The General Hospital Corporation, priority 2020, published 2024)", "key": {"[1]": {"assay": "Stability of C2TCO in full cell growth media, titration with DMT", "type": "in vitro ADME", "conditions": "full cell growth media (10% FBS), 37° C., up to 48 h", "excerpt": "C2TCO can be incorporated into probes that bind to intracellular targets."}, "[2]": {"assay": "Endpoint cleavage of AF594-C2TCO-AF594 with tetrazines (HPLC, fluorescence detection)", "conditions": "15 + excess tetrazine, buffered solution pH 7.4, endpoint 24 h", "experimental": "As an initial assessment of cleavage efficiency, 15 was reacted with an excess of selected tetrazines in buffered solution at pH 7.4 and analyzed the reaction mixtures at an endpoint of 24 h by HPLC with fluorescence detection. […] One hypothesis is that this is not only due to slow tautomerization, but also limited elimination of the respective B1/B2 intermediate. The inability to achieve complete release with Pyr2Tz highlights the advantages of a cleavage directing group.\nRelease measurements with AF594-C2TCO-AF594: Analytical stock solutions and buffers. 10 mM stock solutions of the release probe AF594-C2TCO-AF594 was prepared and further diluted with citrate-phosphate buffer (as indicated below), so that the final concentration of DMSO in buffer was never higher than 2%. Tetrazine stock solutions were prepared in DMSO at concentrations ranging from 10-100 mM and diluted with citrate-phosphate buffer (as indicated below), so that the final concentration of DMSO in buffer was never higher than 2%. […]\nEndpoint measurements with AF594-C2TCO-AF594. […] The released AF594-amine was detected using an RF-20Axs fluorescence detector and confirmed by a LCMS-2020 mass spectrometer (ESI) implemented in the Nexera X2® UHPLC system."}, "[3]": {"conditions": "in vivo; cited from earlier work"}, "[4]": {"assay": "Second order rate constants of tetrazines with PEGylated rTCO 6", "conditions": "reaction with PEGylated rTCO 6"}, "[5]": {"assay": "Release from rTCO-AlexaFluor 350 conjugate monitored by LCMS", "conditions": "Tz 200 μM, 7 125 μM, pH 7, 25° C.; PyrMe within ~8 hours, PyrPA initial fast phase", "experimental": "Similar to the previous study (Carlson et al.), an rTCO-AlexaFluor 350 conjugate was used (7, FIG. 5) to further investigate the release step. Reactions were carried out in buffered aqueous solution at pH 7 and 25° C., selecting concentrations of PyrMe or PyrPA (200 μM) and 7 (125 μM) such that the click reaction was done in less than 4 minutes, allowing temporal monitoring of post-click reactions by LCMS. With PyrMe, slow monophasic release was observed that reached a yield of approximately 50% within ˜8 hours. […] To verify these hypotheses, PyrMe was reacted with rTCO-glycine, the release reaction was allowed to proceed to completion, and the non-releasing isomer was then isolated. […] This key finding is in line with the observations of Sarris et al., who achieved approx. 80% release with PymK (3) and invoked the preferred formation of the releasing adduct with the ethylammonium moiety in head-to-head position. (due to pre-click interaction of NH3^+ with the carbamate functionality of the leaving group) to explain this increased conversion."}}, "note": "Where a SMILES comes first, the peptide text is derived from it."}
{"molecule": "OC1/C=C/C(O)CCCC1", "note": "(stereo not drawn) [C2TCO, anti-cyclooct-2-ene-1,4-diol]", "values": [{"measurement": "stability (intact C2TCO)", "setting": "[1]", "result": "> 97", "unit": "%"}]}
{"molecule": "Cc1nnc(C)nn1", "note": "[DMT]", "values": [{"measurement": "cleavage", "setting": "[2]", "result": "Nearly complete cleavage"}]}
{"molecule": "N=C(N)NCCCC[C@@H]1NC(=O)CCSSC[C@@H](C(N)=O)NC(=O)[C@@H]2CCCN2C(=O)[C@H](Cc2c[nH]c3ccccc23)NC(=O)[C@H](CC(=O)O)NC(=O)CNC1=O", "note": "[Eptifibatide] (HELM PEPTIDE1{[O=C(CCS[*:3])[*:2]].[N=C(N)NCCCC[C@H](N[*:1])C(=O)[*:2]].G.D.W.P.C.[am]}$PEPTIDE1,PEPTIDE1,1:R3-7:R3$$$V2.0)", "values": [{"measurement": "half-life", "setting": "[3]", "result": "3 to 4", "unit": "h"}]}
{"molecule": "c1ccc(-c2nnc(-c3ccccn3)nn2)nc1", "note": "[Pyr2Tz, 3,6-bis(2-pyridyl)tetrazine]", "values": [{"measurement": "cleavage", "setting": "[2]", "result": 23, "unit": "%"}]}
{"molecule": "Cc1nnc(-c2ccccn2)nn1", "note": "[PyrMe]", "values": [{"measurement": "rate enhancement vs. DMT", "setting": "[4]", "result": "up to 12 fold"}, {"measurement": "release yield", "setting": "[5]", "result": "approximately 50%"}]}
{"molecule": "O=C(O)CCc1nnc(-c2ccccn2)nn1", "note": "[PyrPA]", "values": [{"measurement": "release yield", "setting": "[5]", "result": "very similar release yield"}]}
{"molecule": "alteplase: widely-used tPA thrombolytic", "values": [{"measurement": "clearance t1/2", "setting": "[3]", "result": "about 5 min"}]}
